From patent US9437446B2, “Slurry for chemical mechanical polishing and chemical mechanical polishing method” (KURARAY CO., LTD., priority 2012, dated 2016)

What was measured:
[1] = pKa of the amino group (conjugated acid) of the amino compound used in the slurry; conditions: water

From the text: Such value of the pKa can be measured by the potentiometric titration method. In the present specification, the pKa of the amino group is “pKa of conjugated acid of the amino group”.

pKa [1]	SMILES	pKa (physchem)
10	CCCCNCCO [2-(butylamino)ethanol]	–
7.6	N[C@H]1C(O)O[C@H](CO)[C@@H](O)[C@@H]1O (stereo partly shown) [glucosamine]	–

SMILES	pKa [1]	pKa (physchem)
CCNC[C@H](O)[C@@H](O)[C@H](O)[C@H](O)CO [N-ethyl glucamine, N-ethylglucamine]	9.5	–
